≈ marks a conversion by molar mass, not a printed value. Where “and” joins values, the source holds several entries; their conditions need not be identical. Equal values may be shown once. Calls of active or inactive are those of the source. No cut-off for these calls is given here.
What was measured:
[1] = Solubility in water at 25 degC sonicated for 10 mins by HPLC method; assay type: physicochemical
[2] = Growth inhibition of human NCI60 cells; assay type: functional
[3] = system: U2OS; assay: Induction of apoptosis in human U2OS cells assessed as increase in caspase-3 catalytic activity at cytotoxic IC50 level after 72 hrs; assay type: functional
[4] = molecular target: T1, Tubulin (Homo sapiens) (UniProt P68371+Q9H4B7+P0DPH7+P68366+Q13509+Q71U36+P04350+Q3ZCM7+P07437+P68363+Q9BQE3+Q6PEY2+Q13885+Q9BVA1+Q9BUF5); assay: Inhibition of tubulin polymerization in human U2OS cells at cytotoxic IC50 level after 72 hrs by Western blotting method; assay type: cell-based
[5] = Binding affinity to Pu24 DNA (unknown origin) assessed as change in melting temperature at 5 uM at pH 7.4 by fluorescence melting assay
[6] = Binding affinity to double stranded DNA (unknown origin) assessed as change in melting temperature at 5 uM at pH 7.4 by fluorescence melting assay
[7] = species: Homo sapiens; assay: Binding affinity to human telomeric DNA sequence assessed as change in melting temperature at 5 uM at pH 7.4 by fluorescence melting assay
[8] = system: U2OS; assay: Induction of telomere architecture perturbations in human U2OS cells assessed as displacement of hPOT1 from telomeres at cytotoxic IC50 level after 72 hrs by chromatin immunoprecipitation method; assay type: functional, cell-based
[9] = system: U2OS; assay: Induction of telomere architecture perturbations in human U2OS cells assessed as displacement of TRF2 from telomeres at cytotoxic IC50 level after 24 hrs by chromatin immunoprecipitation method; assay type: functional
[10] = system: U2OS; assay: Induction of telomere architecture perturbations in human U2OS cells assessed as displacement of human DNA topoisomerase 1 from telomeres at cytotoxic IC50 level after 24 hrs by chromatin immunoprecipitation method; assay type: functional
[11] = molecular target: T2, DNA topoisomerase 1 (Homo sapiens) (UniProt P11387); assay: Inhibition of human recombinant topoisomerase 1-dependent DNA cleavage using 751-bp BamHI-EcoRI fragment of SV40 DNA at 1 to 50 uM incubated for 30 mins by PAGE method
T2 sequence (whole entry): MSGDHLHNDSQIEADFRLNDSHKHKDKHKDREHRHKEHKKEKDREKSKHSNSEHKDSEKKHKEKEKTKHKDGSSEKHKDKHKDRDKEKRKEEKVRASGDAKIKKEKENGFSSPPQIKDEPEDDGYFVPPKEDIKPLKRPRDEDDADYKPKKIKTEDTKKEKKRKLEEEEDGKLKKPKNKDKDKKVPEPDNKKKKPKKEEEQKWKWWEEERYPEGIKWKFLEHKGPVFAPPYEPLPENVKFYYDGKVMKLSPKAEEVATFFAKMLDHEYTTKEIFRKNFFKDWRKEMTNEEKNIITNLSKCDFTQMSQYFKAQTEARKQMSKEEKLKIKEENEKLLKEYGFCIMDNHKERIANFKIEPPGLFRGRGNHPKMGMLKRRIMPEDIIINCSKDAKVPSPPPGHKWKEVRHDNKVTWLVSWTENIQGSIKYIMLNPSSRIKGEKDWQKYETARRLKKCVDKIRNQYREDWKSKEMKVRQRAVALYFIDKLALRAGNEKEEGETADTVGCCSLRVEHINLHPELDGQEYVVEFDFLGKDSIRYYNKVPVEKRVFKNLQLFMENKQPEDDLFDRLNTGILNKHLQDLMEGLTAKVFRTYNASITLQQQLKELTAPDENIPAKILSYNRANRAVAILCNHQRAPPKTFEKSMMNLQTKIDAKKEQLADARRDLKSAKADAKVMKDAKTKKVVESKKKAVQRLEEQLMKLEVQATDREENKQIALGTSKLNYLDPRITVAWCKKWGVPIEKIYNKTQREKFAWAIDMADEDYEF

[12] = system: U2OS; assay: Growth inhibition of human U2OS cells after 72 hrs by coulter counter method; assay type: functional, cell-based
[13] = system: U2OS; assay: Induction of cell cycle arrest in human U2OS cells assessed as increase in accumulation at subG1 phase at cytotoxic IC50 level by propidium iodide staining based based cytofluorimetry; assay type: functional; settings: TDE = time-dependent effect
[14] = system: U2OS; assay: Induction of cell cycle arrest in human U2OS cells assessed as accumulation at G2/M phase at cytotoxic IC50 level by propidium iodide staining based based cytofluorimetry; assay type: functional; settings: TDE = time-dependent effect
[15] = system: Calf thymus DNA; assay: Binding affinity to calf thymus double stranded DNA assessed as induction of modification of dichroic signal by CD spectroscopy; assay type: nucleic-acid assay; settings: Bos taurus
[16] = molecular target: T1, Tubulin (Homo sapiens); assay: Induction of tubulin polymerization in human U2OS cells at cytotoxic IC50 level after 72 hrs by Western blotting method; assay type: cell-based
[17] = system: U2OS; assay: Induction of telomere architecture perturbations in human U2OS cells assessed as displacement of hPOT1 from telomeres at cytotoxic IC50 level after 12 hrs by chromatin immunoprecipitation method; assay type: functional
[18] = system: U2OS; assay: Induction of telomere architecture perturbations in human U2OS cells assessed as increase in DNA topoisomerase 1 binding to telomeric sequences at cytotoxic IC50 level after 12 hrs by chromatin immunoprecipitation method; assay type: functional
[19] = system: U2OS; assay: Induction of telomere architecture perturbations in human U2OS cells assessed as displacement of hPOT1 from telomeres at cytotoxic IC50 level after 24 hrs by chromatin immunoprecipitation method; assay type: functional
[20] = molecular target: Cyclin-dependent kinase 1 (Homo sapiens, UniProt P06493); assay: Inhibition of CDC2 kinase (unknown origin) using histone H1 and [32P]-ATP
[21] = Inhibition of purified recombinant glutathione-S-transferase tagged cdc25 phosphatase (unknown origin) assessed as reduction in p-nitrophenylphosphate phosphatase activity by colorimetry; parameters: species or system Homo sapiens
[22] = species: Homo sapiens; assay: Binding affinity to human telomeric DNA sequence Tel22 assessed as induction of modification of dichroic signal at 0 to 16 uM at pH 7.4 by CD spectroscopy
[23] = molecular target: T2, DNA topoisomerase 1 (Homo sapiens); settings: 50 uM
Description: Inhibition of human recombinant topoisomerase 1-dependent DNA cleavage using 751-bp BamHI-EcoRI fragment of SV40 DNA at 50 uM incubated for 30 mins by PAGE method

[24] = system: U2OS; assay: Induction of telomere architecture perturbations in human U2OS cells assessed as increase in DNA topoisomerase 1 binding to telomeric sequences at cytotoxic IC50 level after 6 hrs by chromatin immunoprecipitation method; assay type: functional

Chain of Cyclin-dependent kinase 1 (P06493 whole entry): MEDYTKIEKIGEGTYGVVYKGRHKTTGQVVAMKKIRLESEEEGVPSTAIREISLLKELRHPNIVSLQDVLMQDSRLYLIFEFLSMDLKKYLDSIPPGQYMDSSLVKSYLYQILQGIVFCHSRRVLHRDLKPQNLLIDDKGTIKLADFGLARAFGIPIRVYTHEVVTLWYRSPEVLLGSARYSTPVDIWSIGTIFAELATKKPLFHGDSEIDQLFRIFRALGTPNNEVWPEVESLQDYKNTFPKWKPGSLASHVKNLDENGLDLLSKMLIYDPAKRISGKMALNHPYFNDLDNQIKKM

solubility at 10 min [1] | ΔTm [5] | ΔTm [6] | ΔTm [7] | SMILES | GI50 ([2]; Homo sapiens, NCI60) | further results
7.2 mM |  |  |  | CC(=O)O.COc1ccc2c(c1)[nH]c(=N)c1c3cc(OC)c(OC)cc3cn21 |  | GI50 [2]: < 9.55 µM
 |  |  |  | CCC1=C[C@@H]2CN(C1)Cc1c([nH]c3ccccc13)[C@@](C(=O)OC)(c1cc3c(cc1OC)N(C)[C@H]1[C@@](O)(C(=O)OC)[C@H](OC(C)=O)[C@]4(CC)C=CCN5CC[C@]31[C@@H]54)C2 |  | Activity [3]: Active; tubulin polymerization inhibition (active/inactive) [4]: Active
21.9 mM (≈ 6120 µg/mL) |  |  |  | COc1ccc2c(c1)cn1c3ccc(O)cc3[nH]c(=N)c21 [listing 1 of 2 here] | 11 µM | 
 | 1.5 °C | 0.3 °C | 1.1 °C | N=c1[nH]c2ccccc2n2cc3ccccc3c12 |  | 
 | 1.9 °C and 1.1 °C | 0.2 °C and 0.1 °C | 3.6 °C and 2.5 °C | Cc1cc2cn3c4ccc(O)cc4[nH]c(=N)c3c2cc1C [listing 1 of 2 here] |  | 
9.8 mM |  |  |  | CC(=O)O.Cc1cc2cn3c4ccc(O)cc4[nH]c(=N)c3c2cc1C |  | GI50 [2]: < 5.25 µM
 | 4.1 °C and 2.4 °C | 0 °C and 0.1 °C | 5 °C and 3.1 °C | COc1ccc2c(c1)[nH]c(=N)c1c3cc(OC)c(OC)cc3cn21 [listing 1 of 2 here] |  | 
 | 1.1 °C | 0 °C | 0.3 °C | N=c1[nH]c2cc(Cl)c(Cl)cc2n2cc3ccccc3c12 |  | 
 | 1.9 °C and 2.9 °C | 0.1 °C and 0.7 °C | 4.4 °C and 4.3 °C | COc1ccc2c(c1)cn1c3ccc(O)cc3[nH]c(=N)c21 [listing 2 of 2 here] |  | 
12.7 mM (≈ 3730 µg/mL) | 2.6 °C and 2.2 °C | 0.3 °C and 0.7 °C | 4.3 °C and 4.4 °C | COc1ccc(OC)c2c1[nH]c(=N)c1c3ccccc3cn21 | 2.29 µM | 
14.4 mM (≈ 4660 µg/mL) |  |  |  | COc1ccc2c(c1)[nH]c(=N)c1c3cc(OC)c(OC)cc3cn21 [listing 2 of 2 here] | > 15.5 µM | 
13 mM (≈ 3810 µg/mL) | 1.1 °C | 0 °C | 1.2 °C | COc1ccc2c(c1)cn1c3ccc(OC)cc3[nH]c(=N)c21 | < 1.2 µM | Activity [8]: inactive; Activity [9]: -67%; inhibition (INH) [10]: 57%; fold change (FC) [3]: 13; inhibition of DNA cleavage (qualitative) [11]: Dose-dependent effect; growth inhibition (GI) [12]: Active; tubulin polymerization inhibition (active/inactive) [4]: Active; Activity [13]: tde; Activity [14]: tde; Activity [15]: inactive
 |  |  |  | CC(=O)O[C@H]1C(=O)[C@@]2(C)[C@H]([C@H](OC(=O)c3ccccc3)[C@]3(O)C[C@H](OC(=O)[C@H](O)[C@@H](NC(=O)c4ccccc4)c4ccccc4)C(C)=C1C3(C)C)[C@]1(OC(C)=O)CO[C@@H]1C[C@@H]2O |  | Activity [3]: Active; Activity [16]: Active
 | 2 °C and 1 °C | 0 °C | 1 °C and 0.8 °C | N=c1[nH]c2cc(O)ccc2n2cc3c(F)cccc3c12 [listing 1 of 2 here] |  | inhibition of DNA cleavage (qualitative) [11]: Dose-dependent effect
14 mM |  |  |  | CC(=O)O.COc1cc2cn3c4ccc(O)cc4[nH]c(=N)c3c2cc1OC |  | Activity [17]: -63%; Activity [9]: -66%; inhibition (INH) [10]: 57%; fold change (FC) [3]: 17; Activity [18]: 77%; GI50 [2]: < 3.31 µM; Activity [19]: -31%
 |  |  |  | O=C(Cn1c2ccc(Br)cc2c2nc3ccccc3nc21)NNC(=S)NC1CCCCC1 |  | IC50 [20]: 70 µM; IC50 [21]: 25 µM

solubility at 10 min [1] | ΔTm [5] | ΔTm [6] | ΔTm [7] | SMILES | GI50 ([2]; Homo sapiens, NCI60) | further results
14.4 mM (≈ 4050 µg/mL) | 2.1 °C | 0.2 °C | 1.8 °C | COc1ccc2c(c1)[nH]c(=N)c1c3cccc(F)c3cn21 | 10.7 µM | 
 | 1.9 °C | 0.3 °C | 3.1 °C | Cc1cc2[nH]c(=N)c3c4ccccc4cn3c2cc1C |  | 
 | 3.4 °C and 2.4 °C | 0.3 °C and 0.2 °C | 5.9 °C and 6.2 °C | COc1cc2cn3c4ccc(O)cc4[nH]c(=N)c3c2cc1OC [listing 1 of 2 here] |  | inhibition of DNA cleavage (qualitative) [11]: Active; growth inhibition (GI) [12]: Active; tubulin polymerization inhibition (active/inactive) [4]: Active; Activity [13]: tde; Activity [14]: tde; Activity [22]: Active; Activity [19]: inactive; Activity [15]: Active
3.4 mM (≈ 899 µg/mL) |  |  |  | COc1ccc2c(c1)[nH]c(=O)c1c3ccccc3cn21 |  | 
10.9 mM |  |  |  | CC(=O)O.COc1ccc2c(c1)cn1c3ccc(O)cc3[nH]c(=N)c21 |  | GI50 [2]: < 8.32 µM
 |  |  |  | CCc1c2c(nc3ccc(O)cc13)-c1cc3c(c(=O)n1C2)COC(=O)[C@]3(O)CC |  | inhibition [23]: Active
7.8 mM (≈ 2270 µg/mL) | 2.1 °C | 0.1 °C and 0 °C | 2.6 °C and 1.4 °C | COc1ccc2c(c1)[nH]c(=N)c1c3cc(C)c(C)cc3cn21 | < 3.8 µM | 
24.5 mM (≈ 7580 µg/mL) |  |  |  | COc1cc2cn3c4ccc(O)cc4[nH]c(=N)c3c2cc1OC [listing 2 of 2 here] | < 3.24 µM | Activity [17]: -88%; Activity [9]: -80%; inhibition (INH) [10]: 57%; fold change (FC) [3]: 23; Activity [18]: 309%; Activity [24]: 64%
 | 1.5 °C | 0.2 °C | 1.8 °C | Cc1cccc2c1[nH]c(=N)c1c3ccccc3cn21 |  | 
13.8 mM (≈ 3630 µg/mL) | 1.1 °C and 2.3 °C | 0.1 °C and 0 °C | 1.5 °C and 2 °C | COc1ccc2[nH]c(=N)c3c4ccccc4cn3c2c1 | 1.55 µM | 
23 mM (≈ 6150 µg/mL) |  |  |  | N=c1[nH]c2cc(O)ccc2n2cc3c(F)cccc3c12 [listing 2 of 2 here] |  | GI50 [2]: 31.6 µM
 | 2 °C | 0.2 °C | 1.4 °C | COc1ccc2c(c1)[nH]c(=N)c1c3ccccc3cn21 |  | 
12.7 mM |  |  |  | CC(=O)O.N=c1[nH]c2cc(O)ccc2n2cc3c(F)cccc3c12 |  | GI50 [2]: 6.31 µM
22.4 mM (≈ 6260 µg/mL) | 0.2 °C | 0.2 °C | 1.9 °C | COc1ccc2cn3c4ccc(O)cc4[nH]c(=N)c3c2c1 | 12.3 µM | 
13.2 mM (≈ 3870 µg/mL) |  |  |  | COc1ccc2c(c1)[nH]c(=N)c1c3cc(OC)ccc3cn21 | < 1.05 µM | 
14.1 mM (≈ 3910 µg/mL) |  |  |  | Cc1cc2cn3c4ccc(O)cc4[nH]c(=N)c3c2cc1C [listing 2 of 2 here] |  | GI50 [2]: < 1.45 µM

— ChEMBL document CHEMBL3414534, “Water-soluble isoindolo[2,1-a]quinoxalin-6-imines: in vitro antiproliferative activity and molecular mechanism(s) of action” (Eur J Med Chem, 2015)
